Experimental data from patent US20080114047A1 (priority 2003, published 2008).
Where a name gives a salt, the structure may show the parent alone.

Structure (SMILES) | melting point
Cl.Cl.N=C(N)c1ccc2cc(CCc3cc4ccc(C(=N)N)cc4o3)oc2c1 [Compound 11, 2-(2-(6-Amidinobenzofuran-2-yl)ethyl)benzofuran-6-carboxamidine dihydrochloride] | 362 °C (dec.)
N=C(NO)c1ccc(-c2cc3ccc(C(=N)NO)cc3o2)cc1 (as salt: HCl) [Compound 181, 2-(4-(N-Hydroxycarbamimidoyl)phenyl)-N-hydroxybenzofuran-6-carboxamidine] | 210 °C (dec.)
N=C(NO)c1ccc2oc(CCCc3cc4cc(C(=N)NO)ccc4o3)cc2c1 (as salt: HCl) [Compound 185, 2-(3-(5-(N-Hydroxycarbamimidoyl)benzofuran-2-yl)propyl)-N-hydroxybenzofuran-5-carboxamidine] | 145 to 147 °C (dec.)
CONC(=N)c1ccc2oc(CCCCc3cc4cc(C(=N)NOC)ccc4o3)cc2c1 (as salt: HCl) [Compound 189, 2-(4-(5-(N-Methoxycarbamimidoyl)benzofuran-2-yl)butyl)-N-methoxybenzofuran-5-carboxamidine] | 248 to 250 °C (dec.)
CONC(=N)c1ccc2cc(CCCCCc3cc4ccc(C(=N)NOC)cc4o3)oc2c1 (as salt: HCl) [Compound 187, 2-(5-(6-(N-Methoxycarbamimidoyl)benzofuran-2-yl)pentyl)-N-methoxybenzofuran-6-carboxamidine] | 230 to 231 °C (dec.)
CONC(=N)c1ccc2oc(CCCc3cc4cc(C(=N)NOC)ccc4o3)cc2c1 (as salt: HCl) [Compound 188, 2-(3-(5-(N-Methoxycarbamimidoyl)benzofuran-2-yl)propyl)-N-methoxybenzofuran-5-carboxamidine] | 89 to 90 °C (dec.)
Cl.Cl.N=C(N)c1ccc2cc(CCCCc3cc4ccc(C(=N)N)cc4o3)oc2c1 [Compound 23, 2-(4-(6-Amidinobenzofuran-2-yl)butyl)benzofuran-6-carboxamidine dihydrochloride] | 328 to 330 °C (dec.)
CONC(=N)c1ccc2oc(CCCCCc3cc4cc(C(=N)NOC)ccc4o3)cc2c1 (as salt: HCl) [Compound 193, 2-(5-(5-(N-Methoxycarbamimidoyl)benzofuran-2-yl)pentyl)-N-methoxybenzofuran-5-carboxamidine] | 118 °C (dec.)
N=C(NO)c1ccc(OCCCCCOc2ccc(-c3cc4cc(C(=N)NO)ccc4o3)cc2)cc1 (as salt: HCl) [Compound 183, 2-(4-(5-(4-(N-Hydroxycarbamimidoyl)phenoxy)pentyloxy)phenyl)-N-hydroxybenzofuran-5-carboxamidine] | 202 °C (dec.)
Cl.Cl.N=C(N)c1ccc(OCCCOc2ccc(-c3cc4ccc(C(=N)N)cc4o3)cc2)cc1 | 294 to 295 °C
N=C(NO)c1ccc(OCCCOc2ccc(-c3cc4cc(C(=N)NO)ccc4o3)cc2)cc1 (as salt: HCl) [Compound 182, 2-(4-(3-(4-(N-Hydroxycarbamimidoyl)phenoxy)propoxy)phenyl)-N-hydroxybenzofuran-5-carboxamidine] | 204 °C (dec.)
N=C(NO)c1ccc2oc(CCCCCc3cc4cc(C(=N)NO)ccc4o3)cc2c1 (as salt: HCl) [Compound 192, 2-(5-(5-(N-Hydroxycarbamimidoyl)benzofuran-2-yl)pentyl)-N-hydroxybenzofuran-5-carboxamidine] | 120 °C (dec.)

The next lines start with the values.

melting point | Structure (SMILES)
245 to 246 °C (dec.) | CONC(=N)c1ccc2oc(CCc3cc4cc(C(=N)NOC)ccc4o3)cc2c1 (as salt: HCl) [Compound 191, 2-(2-(5-(N-Methoxycarbamimidoyl)benzofuran-2-yl)ethyl)-N-methoxybenzofuran-5-carboxamidine]
325 to 327 °C (dec.) | Cl.Cl.N=C(N)c1ccc2oc(CCCCc3cc4cc(C(=N)N)ccc4o3)cc2c1 [Compound 20, 2-(4-(5-Amidinobenzofuran-2-yl)butyl)benzofuran-5-carboxamidine dihydrochloride]
212 to 214 °C | Cl.Cl.N=C(N)c1ccc2oc(Cc3cc4cc(C(=N)N)ccc4o3)cc2c1 [Compound 4, 2-((5-Amidinobenzofuran-2-yl)methyl)benzofuran-5-carboxamidine dihydrochloride]
155 to 157 °C | Cl.Cl.c1cc2oc(CCCCCc3cc4cc(C5=NCCN5)ccc4o3)cc2cc1C1=NCCN1 [Compound 28, 4,5-Dihydro-2-(2-(5-(5-(4,5-dihydro-1H-imidazol-2-yl)benzofuran-2-yl)pentyl)benzofuran-5-yl)-1H-imidazole dihydrochloride]
168 to 170 °C | Cl.Cl.N=C(N)c1ccc2oc(CCCc3cc4cc(C(=N)N)ccc4o3)cc2c1 [Compound 14, 2-(3-(5-Amidinobenzofuran-2-yl)propyl)benzofuran-5-carboxamidine dihydrochloride]
323 to 324 °C (dec.) | Cl.Cl.c1cc2oc(CCCCc3cc4cc(C5=NCCN5)ccc4o3)cc2cc1C1=NCCN1 [Compound 22, 4,5-Dihydro-2-(2-(4-(5-(4,5-dihydro-1H-imidazol-2-yl)benzofuran-2-yl)butyl)benzofuran-5-yl)-1H-imidazole dihydrochloride]
333 to 335 °C | Cl.Cl.c1cc(C2=NCCN2)c2cc(Cc3cc4c(C5=NCCN5)cccc4o3)oc2c1 [Compound 3, Bis(4-(4,5-dihydro-1H-imidazol-2-yl)benzofuran-2-yl)methane dihydrochloride]
> 300 °C (dec.) | Cl.Cl.N=C(N)c1ccc2cc(CCCc3cc4ccc(C(=N)N)cc4o3)oc2c1 [Compound 17, 2-(3-(6-Amidinobenzofuran-2-yl)propyl)benzofuran-6-carboxamidine dihydrochloride]
233 to 235 °C | Cl.Cl.c1cc2oc(Cc3cc4cc(C5=NCCN5)ccc4o3)cc2cc1C1=NCCN1 [Compound 6, Bis(5-(4,5-dihydro-1H-imidazol-2-yl)benzofuran-2-yl)methane dihydrochloride]
> 300 °C (dec.) | Cl.Cl.c1cc2cc(CCCc3cc4ccc(C5=NCCN5)cc4o3)oc2cc1C1=NCCN1 [Compound 19, 4,5-Dihydro-2-(2-(3-(6-(4,5-dihydro-1H-imidazol-2-yl)benzofuran-2-yl)propyl)benzofuran-6-yl)-1H-imidazole dihydrochloride]
> 360 °C | Cl.Cl.c1cc2cc(CCc3cc4ccc(C5=NCCN5)cc4o3)oc2cc1C1=NCCN1 [Compound 13, 4,5-dihydro-2-(2-(2-(6-(4,5-dihydro-1H-imidazol-2-yl)benzofuran-2-yl)ethyl)benzofuran-6-yl)-1H-imidazole dihydrochloride]
203 to 205 °C | Cl.Cl.c1cc2oc(CCCc3cc4cc(C5=NCCN5)ccc4o3)cc2cc1C1=NCCN1 [Compound 16, 4,5-Dihydro-2-(2-(3-(5-(4,5-dihydro-1H-imidazol-2-yl)benzofuran-2-yl)propyl)benzofuran-5-yl)-1H-imidazole dihydrochloride]
343 to 345 °C (dec.) | Cl.Cl.c1cc2cc(CCCCc3cc4ccc(C5=NCCN5)cc4o3)oc2cc1C1=NCCN1 [Compound 25, 4,5-Dihydro-2-(2-(4-(6-(4,5-dihydro-1H-imidazol-2-yl)benzofuran-2-yl)butyl)benzofuran-6-yl)-1H-imidazole dihydrochloride]
341 to 343 °C | Cl.Cl.c1cc2cc(Cc3cc4ccc(C5=NCCN5)cc4o3)oc2cc1C1=NCCN1 [Compound 7, Bis(6-(4,5-dihydro-1H-imidazol-2-yl)benzofuran-2-yl)methane dihydrochloride]
